According to US10450297B2, “Sulfonyl amide derivatives for the treatment of abnormal cell growth” (Pfizer, Inc., priority 2007, dated 2019):
Where a name gives a salt, the structure may show the parent alone.

Target: FAK kinase (catalytic construct FAK(410-689)) (Homo sapiens (Human), UniProt Q05397)
Test: FAKcd kinase ELISA (inhibition of poly-glu-tyr phosphorylation by FAK(410-689))
Assay type: biochemical
Conditions: 50 μM final ATP

Sequence of FAK kinase (catalytic construct FAK(410-689)) (Q05397 410-689): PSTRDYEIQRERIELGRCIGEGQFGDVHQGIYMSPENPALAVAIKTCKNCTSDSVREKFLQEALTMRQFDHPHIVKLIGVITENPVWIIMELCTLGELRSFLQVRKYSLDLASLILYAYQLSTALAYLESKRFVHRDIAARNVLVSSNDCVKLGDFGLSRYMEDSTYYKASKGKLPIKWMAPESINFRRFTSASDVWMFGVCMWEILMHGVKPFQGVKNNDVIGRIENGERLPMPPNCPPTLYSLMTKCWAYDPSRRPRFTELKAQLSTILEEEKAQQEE

Compound	IC50 [nM]
CN(c1ncccc1CNc1nc(Nc2ccc(C3COC(C)(C)O3)cc2)ncc1C(F)(F)F)S(C)(=O)=O (stereo not shown) [Compound 410, N-[3-({[2-{[4-(2,2-dimethyl-1,3-dioxolan-4-yl)phenyl]amino}-5-(trifluoromethyl)pyrimidin-4-yl)amino}methyl)pyridin-2-yl]-N-methylmethane-sulfonamide]	1.19
CN(c1nccnc1CNc1nc(Nc2ccc(C(O)CO)cc2)ncc1C(F)(F)F)S(C)(=O)=O (stereo not shown) [Compound 411, N-[3-({[2-{[4-(1,2-dihydroxyethyl)phenyl]amino}-5-(trifluoromethyl)pyrimidin-4-yl]amino}methyl)pyrazin-2-yl]-N-methylmethane-sulfonamide]	0.941
CN(c1ncccc1CNc1nc(Nc2ccc(C(O)CO)cc2)ncc1C(F)(F)F)S(C)(=O)=O (stereo not shown) [Compound 412, N-[3-({[2-{[4-(1,2-dihydroxyethyl)phenyl]amino}-5-(trifluoromethyl)pyrimidin-4-yl]amino}methyl)pyridin-2-yl]-N-methylmethane-sulfonamide]	< 0.595
CN(c1ncccc1CNc1nc(Nc2ccc(CNCC(C)(C)O)cc2)ncc1C(F)(F)F)S(C)(=O)=O [Compound 413, N-{3-[({2-[(4-{[(2-hydroxy-2-methylpropyl)amino]methyl}phenyl)amino]-5-(trifluoromethyl)pyrimidin-4-yl}amino)methyl]pyridin-2-yl}-N-methylmethanesulfonamide]	< 0.595
CNCc1ccc(Nc2ncc(C(F)(F)F)c(NCc3cccnc3N(C)S(C)(=O)=O)n2)cc1 [Compound 414, N-methyl-N-[3-({[2-({4-[(methylamino)methyl]phenyl}amino)-5-(trifluoromethyl)pyrimidin-4-yl]amino}methyl)pyridin-2-yl]methanesulfonamide]	< 0.595
CNCc1ccc(Nc2ncc(C(F)(F)F)c(NCc3ccccc3N(C)S(C)(=O)=O)n2)cc1 [Compound 415, N-methyl-N-[2-({[2-({4-[(methylamino)methyl]phenyl}amino)-5-(trifluoromethyl)pyrimidin-4-yl]amino}methyl)phenyl]methanesulfonamide]	< 0.595
CN(c1ncccc1CNc1nc(Nc2ccc(CN)cc2)ncc1C(F)(F)F)S(C)(=O)=O [Example 4, N-(3-((2-(4-(aminomethyl)phenylamino)-5-(trifluoromethyl)pyrimidin-4-ylamino)methyl)pyridin-2-yl)-N-methylmethanesulfonamide]	0.59
CC(=O)NCc1ccc(Nc2ncc(C(F)(F)F)c(NCc3cccnc3N(C)S(C)(=O)=O)n2)cc1 [Example 5, N-(4-(4-((2-(N-methylmethan-5-ylsulfonamido)pyridin-3-yl)methylamino)-5-(trifluoromethyl)pyrimidin-2-ylamino)benzyl)acetamide]	0.6
CN(c1ncccc1CNc1nc(Nc2ccc(CO)cc2)ncc1C(F)(F)F)S(C)(=O)=O [Example 6, N-(3-((2-(4-(hydroxymethyl)phenylamino)-5-(trifluoromethyl)pyrimidin-4-ylamino)methyl)pyridin-2-yl)-N-methylmethanesulfonamide]	< 0.595
CN(c1ncccc1CNc1nc(Nc2ccc(CCl)cc2)ncc1C(F)(F)F)S(C)(=O)=O [Example 7, N-(3-((2-(4-(chloromethyl)phenylamino)-5-(trifluoromethyl)pyrimidin-4-ylamino)methyl)pyridin-2-yl)-N-methylmethanesulfonamide]	1.55
CN(c1ncccc1CNc1nc(Nc2ccc(CNC(CO)CO)cc2)ncc1C(F)(F)F)S(C)(=O)=O [Example 8, N-(3-((2-(4-((1,3-dihydroxypropan-2-ylamino)methyl)phenylamino)-5-(trifluoromethyl)pyrimidin-4-ylamino)methyl)pyridin-2-yl)-N-methylmethanesulfonamide]	< 0.595
CN(c1ncccc1CNc1nc(Nc2cccc(C(=O)OC(C)(C)C)c2)ncc1C(F)(F)F)S(C)(=O)=O [Example 9, tert-butyl 3-({4-[({2-[methyl(methylsulfonyl)amino]pyridin-3-yl}methyl)amino]-5-(trifluoromethyl)pyrimidin-2-yl}amino)benzoate]	0.6
CN(c1ncccc1CNc1nc(Nc2cccc(C(=O)O)c2)ncc1C(F)(F)F)S(C)(=O)=O [Example 10, 3-({4-[({2-[methyl(methylsulfonyl)amino]pyridin-3-yl}methyl)amino]-5-(trifluoromethyl)pyrimidin-2-yl}amino)benzoic acid trifluoroacetic acid salt]	0.6
CN(c1ncccc1CNc1nc(Nc2cccc(C(=O)NC3CC3)c2)ncc1C(F)(F)F)S(C)(=O)=O [Example 11, N-cyclopropyl-3-({4-[({2-[methyl(methylsulfonyl)amino]pyridin-3-yl}methyl)amino]-5-(trifluoromethyl)pyrimidin-2-yl}amino)benzamide]	1.86
CN(c1ncccc1CNc1nc(Nc2ccc(C(N)=O)c(F)c2)ncc1C(F)(F)F)S(C)(=O)=O [Example 13, 2-fluoro-4-({4-[({2-[methyl(methylsulfonyl)amino]pyridin-3-yl}methyl)amino]-5-(trifluoromethyl)pyrimidin-2-yl}amino)benzamide formic acid salt]	< 0.595
CN(c1ncccc1CNc1nc(Nc2ccc(C(N)=O)cc2F)ncc1C(F)(F)F)S(C)(=O)=O [Example 14, 3-fluoro-4-({4-[({2-[methyl(methylsulfonyl)amino]pyridin-3-yl}methyl)amino]-5-(trifluoromethyl)pyrimidin-2-yl}amino)benzamide formic acid salt]	< 0.595
